Data set [1] concerns spared nerve injury (SNI) model of neuropathic pain. As to the kind of experiment: Tactile allodynia (von Frey test) after spared nerve injury. To be noted: for tactile allodynia: 350 μmol/kg oral, daily for 3 days, SNI mice, ipsilateral paw. The data set is classed as in vivo, mice. As for the experimental part:
Pathogen-free adult male and female C57BL/6J mice (8 weeks old on arrival; The Jackson Laboratory, Bar Harbor, USA) were used. Mice were housed five per cage in a light- and temperature-controlled room (12:12-h light-dark cycle, light on at 7:00 AM) with food and water available ad libitum. All procedures were approved by the MD Anderson Cancer Center Animal Care and Use Committee. SNI was performed under inhaled isoflurane anesthesia. The tibial and common peroneal nerves were isolated, tightly ligated with 6-0 silk, and transected immediately distal to the ligation. The sural nerve was left intact. Animals were monitored post-operatively until fully ambulatory prior to return to their home cage. Compounds were suspended with methylcellulose (viscosity 15 cP, 2% w/v in water;) and administered by oral gavage. For SNI anti-nociception, compounds were administered for 3 days (350 μmol/kg/day), beginning 7 days after SNI, and continuing for 3 (reflex tests) or 7 days (conditioned place preference tests). For leukopenia assessment, compounds were administered to naïve mice for 10 days (350 μmol/kg/day). Equivolume methylcellulose (2% w/v) was used as vehicle control for all compounds. An independent investigator dosed the mice in order to maintain blinding to treatment groups for the other investigators who performed the behavioral testing. Testing was conducted blind with respect to group assignment. […] Tactile allodynia was measured using the von Frey test. The 50% paw withdrawal threshold was determined using the “up-down” method. Differences between in vitro concentration-response relationships were determined by comparing the slopes of fitted functions for shared parameters. […] Mechanical allodynia was analyzed as the interpolated 50% thresholds (absolute threshold). […] Differences between treatment groups for behavior were determined using repeated measures two-way ANOVA, followed by Tukey's or […] post hoc tests. Biochemical data were analyzed by one- or two-way ANOVA, followed by Tukey's post hoc tests. Results are expressed as mean±standard deviation (SD). […]

Data set [2] has the same test system. The experiment in a line: Dynamic allodynia (paintbrush stroking) after spared nerve injury. The data set is classed as in vivo. To be noted: 350 μmol/kg oral, daily for 3 days, SNI mice, ipsilateral paw. As for the experimental part: Pathogen-free adult male and female C57BL/6J mice (8 weeks old on arrival; The Jackson Laboratory, Bar Harbor, USA) were used. Mice were housed five per cage in a light- and temperature-controlled room (12:12-h light-dark cycle, light on at 7:00 AM) with food and water available ad libitum. All procedures were approved by the MD Anderson Cancer Center Animal Care and Use Committee. SNI was performed under inhaled isoflurane anesthesia. The tibial and common peroneal nerves were isolated, tightly ligated with 6-0 silk, and transected immediately distal to the ligation. The sural nerve was left intact. Animals were monitored post-operatively until fully ambulatory prior to return to their home cage. […] Dynamic mechanical hypersensitivity was measured by light stroking (velocity is 2 cm/s) of the external lateral side of the injured hind paw in the direction from heel to toe with a paintbrush. The paw withdrawal response was scored according to the following criteria, score=0: walking away or occasionally very brief paw lifting […]; score=1: sustained lifting (>2 s) of the stimulated paw toward the body; score=2: a strong lateral lifting above the level of the body; score=3: flinching or licking of the affected paw. […] Differences between in vitro concentration-response relationships were determined by comparing the slopes of fitted functions for shared parameters. […]

In data set [3] the test system is NRF2/ARE. As to the kind of experiment: NRF2/ARE responsive luciferase reporter assay in HEK293 cells. The data set is classed as cell-based. To be noted: 16 h; for NRF2 activity relative to MMF: 0-100 μM; for NRF2 activity in the presence of H2O2 or ONOO− compared to media control: 10 μM H2O2 or 10 μM ONOO−, 0-100 μM compound. On the procedure:
(§1) NRF2/ARE responsive luciferase reporter HEK293 cells (Signosis, Santa Clara, USA) were seeded at 1×10^5 cells/well in 48-well plates (Corning, Tewksbury, USA) in supplemented Dulbecco's Modified Eagle Medium (DMEM) containing 4.5 g/L glucose (HyClone, Pittsburgh, USA) (10% fetal bovine serum (FBS) (ThermoFisher Scientific, Waltham, USA) and 1% penicillin/streptomycin (Gibco, Waltham, USA)) and cultured overnight at 37° C., 5% CO2, in a humidified environment. The next morning, the media was replaced with supplemented DMEM (1% FBS (ThermoFisher Scientific) and 1% penicillin/streptomycin (Gibco)). Cells were then treated with a concentration range of each example of compounds described in the invention or monomethyl fumarate (0-100 μM), together with 10 μM hydrogen peroxide (H2O2) (Sigma Aldrich, St Louis, USA), 10 μM peroxynitrite (PN) (Sigma Aldrich), or supplemented media (negative control). tert-Butylhydroquinone (tBHQ; 10 μM) (Sigma-Aldrich) was used as positive control. Each condition was run in triplicate and observations confirmed over at least two additional replications.
After 16 h of incubation with examples of compounds described in the invention and ROS/RNS, cells were washed gently with 500 μL PBS (Sigma-Aldrich) and then incubated in 40 μL passive lysis buffer (Promega, Madison, USA) at room temperature. After 20 mins, 30 μL was transferred from each well to a 96-well clear-bottom, white-wall plate (Corning). Luciferase substrate (Signosis; 150 μL) was added to each well and gently mixed. Luminesence was immediately read on a Synergy HTX multi-mode microplate reader (BioTek, Winooski, USA).
Differences between in vitro concentration-response relationships were determined by comparing the slopes of fitted functions for shared parameters. Linear models were selected as the pharmacologically-relevant concentrations tested were within the linear range of the concentration-response functions. Mechanical allodynia was analyzed as the interpolated 50% thresholds (absolute threshold). One-way ANOVA was used to confirm that there were no baseline differences in absolute thresholds or dynamic scores between treatment groups. Differences between treatment groups for behavior were determined using repeated measures two-way ANOVA, followed by Tukey's or Sidaks post hoc tests. Biochemical data were analyzed by one- or two-way ANOVA, followed by Tukey's post hoc tests. Results are expressed as mean±standard deviation (SD). P<0.05 was considered statistically significant.

The conditions of data set [4]: measured, Arch Dermatol Res. 2010, 302(7), 531-8; cited from earlier work.
Data set [5] deals with spared nerve injury (SNI) model of neuropathic pain. As to the kind of experiment: Conditioned place preference assay (spontaneous pain) after spared nerve injury. The data set is classed as in vivo. To be noted: 350 μmol/kg oral, daily for 7 days, nerve-injured mice. As for the experimental part:
Pathogen-free adult male and female C57BL/6J mice (8 weeks old on arrival; The Jackson Laboratory, Bar Harbor, USA) were used. Mice were housed five per cage in a light- and temperature-controlled room (12:12-h light-dark cycle, light on at 7:00 AM) with food and water available ad libitum. All procedures were approved by the MD Anderson Cancer Center Animal Care and Use Committee. SNI was performed under inhaled isoflurane anesthesia. The tibial and common peroneal nerves were isolated, tightly ligated with 6-0 silk, and transected immediately distal to the ligation. The sural nerve was left intact. Animals were monitored post-operatively until fully ambulatory prior to return to their home cage. Compounds were suspended with methylcellulose (viscosity 15 cP, 2% w/v in water;) and administered by oral gavage. For SNI anti-nociception, compounds were administered for 3 days (350 μmol/kg/day), beginning 7 days after SNI, and continuing for 3 (reflex tests) or 7 days (conditioned place preference tests). For leukopenia assessment, compounds were administered to naïve mice for 10 days (350 μmol/kg/day). Equivolume methylcellulose (2% w/v) was used as vehicle control for all compounds. An independent investigator dosed the mice in order to maintain blinding to treatment groups for the other investigators who performed the behavioral testing. […] The time spent in the light chamber was recorded. […]

Data set [6] deals with NRF2/ARE luciferase reporter HEK293 cells. The experiment in a line: Cytotoxicity in the reporter cell assay. The data set is classed as cell-based. On the procedure:
as §1

For data set [7], the system named is leukocytes. The experiment in a line: Absolute leukocyte count in naive mice. The data set is classed as in vivo. To be noted: 350 μmol/kg oral, daily for 10 days. As for the experimental part:
Compounds were suspended with methylcellulose (viscosity 15 cP, 2% w/v in water;) and administered by oral gavage. For SNI anti-nociception, compounds were administered for 3 days (350 μmol/kg/day), beginning 7 days after SNI, and continuing for 3 (reflex tests) or 7 days (conditioned place preference tests). For leukopenia assessment, compounds were administered to naïve mice for 10 days (350 μmol/kg/day). Equivolume methylcellulose (2% w/v) was used as vehicle control for all compounds. An independent investigator dosed the mice in order to maintain blinding to treatment groups for the other investigators who performed the behavioral testing.
Leukocytes from cardiac blood were stained with Turk's solution according to manufacturer instructions, and manually counted on a hemocytometer by an experimenter who was blinded to treatment conditions.

This is an account of results in patent US20230139593A1, “TREATMENT OF DISORDERS ASSOCIATED WITH OXIDATIVE STRESS AND COMPOUNDS FOR SAME” (The University of Adelaide, priority 2020, published 2023).

Counter-ions that a name gives are not always drawn.

`COC(=O)/C=C/C(=O)C(=O)O` [Example J, (3E)-5-methoxy-2,5-dioxopent-3-enoic acid]: the tactile allodynia result in data set [1] is reported as “reversed”. In data set [2], the dynamic allodynia result is recorded as “reversed”.
For `COC(=O)/C=C/C(=O)C(=O)c1ccccc1` [Example D, methyl (2E)-4,5-dioxo-5-phenylpent-2-enoate], in data set [3], the “NRF2 activity relative to MMF” value was “at lower levels than MMF” and the “NRF2 activity in the presence of H2O2 or ONOO− compared to media control” value (from here on “NRF2 activity … compared to media control”) was “increased NRF2 activity in the presence of H2O2 or ONOO^−”.
In the case of `COC(=O)/C=C/C(=O)O` [MMF, monomethyl fumarate], the pKa in data set [4] was 3.63.
For `COC(=O)/C=C/C(=O)OCCN1C(=O)CCC1=O` [diroximel fumarate, reference compound], the “spontaneous pain: preference for the retigabine-paired light chamber” value in data set [5] was “did not develop a preference for the retigabine-paired light chamber”.
Consider `COC(=O)/C=C/C(=O)C(=O)OC` [Example A, 1,5-dimethyl (2E)-4-oxopent-2-enedioate], for which, in data set [3], the “NRF2 activity … compared to media control” value is “increased NRF2 activity in the presence of H2O2 or ONOO^−”. In addition, the “toxicity in the concentration range tested” value in data set [6] (0-100 μM) is listed as “no toxicity in the concentration range tested”. In addition, the “efficacy on tactile and dynamic allodynia relative to diroximel fumarate” value in data set [1] (350 μmol/kg oral each, 3 days, both measures) is listed as “greater efficacy than diroximel fumarate”. For the same compound, the tactile allodynia result in data set [1] was “reversed”. In addition, the dynamic allodynia result in data set [2] is “reversed”. Also, the “spontaneous pain: preference for the retigabine-paired light chamber” value in data set [5] is “did not develop a preference for the retigabine-paired light chamber”. Also, the absolute leukocyte count entry in data set [7] is on record as “did not cause a decline in absolute leukocyte count”.
Take `COC(=O)/C=C/C(=O)C(=O)NCc1ccccc1` [Example C, methyl (2E)-4-(benzylcarbamoyl)-4-oxobut-2-enoate]: in data set [3], the “NRF2 activity relative to MMF” value is reported as “activated NRF2 to a greater extent than MMF” and the “NRF2 activity … compared to media control” value was “did not selectively increase NRF2 activity”. In addition, the cytotoxic concentration result in data set [6] is on record as “above 50 μM”.
